# Literature values as cited in patent EP3072529B1, “COMPOSITION COMPRISING VEMURAFENIB AND HPMC-AS” (ratiopharm GmbH, priority 2015, dated 2016).
# Details: reported
smiles,measurement,value
"CCCS(=O)(=O)Nc1ccc(F)c(C(=O)c2c[nH]c3ncc(-c4ccc(Cl)cc4)cc23)c1F [Vemurafenib base, propane-1-sulfonic acid {3-[5-(4-chlorophenyl)-1H-pyrrolo[2,3-b]pyridine-3-carbonyl]-2,4-difluorophenyl}-amide]",solubility in aqueous and physiological solvents,practically insoluble
